Biological target: human FXR (NR1H4) (Homo sapiens (Human), UniProt Q96RI1)
Experiment: Human FXR (NR1H4) Assay (Gal4 promoter driven luciferase reporter, Indigo Bioscience kit);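 as to Efficacy (%): 100% equals the efficacy of CDCA; efficacy normalized to CDCA set as 100%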
Type: cell-based
Conditions: for EC50: Human FXR (NR1H4) Assay, potency ranges; for Emax: read-out: Efficacy (%)
Description: ASSAYS Human FXR (NR1H4) Assay
Determination of a ligand mediated Gal4 promoter driven transactivation to quantify ligand binding mediated activation of FXR. FXR Reporter Assay kit purchased from Indigo Bioscience (Catalogue number: IB00601) to determine the potency and efficacy of compound developed by Enanta that can induce FXR activation. The principle application of this reporter assay system is to quantify functional activity of human FXR. The assay utilizes non-human mammalian cells, CHO (Chinese hamster ovary) cells engineered to express human NR1H4 protein (referred to as FXR). Reporter cells also incorporate the cDNA encoding beetle luciferase which catalyzes the substrates and yields photon emission. Luminescence intensity of the reaction is quantified using a plate-reading luminometer, Envision. Reporter Cells include the luciferase reporter gene functionally linked to an FXR responsive promoter. Thus, quantifying changes in luciferase expression in the treated reporter cells provides a sensitive surrogate measure of the changes in FXR activity. […] The assay is according to the manufacturer's instructions. In brief, the assay was performed in white, 96 well plates using final volume of 100 uL containing cells with different doses of compounds. Retrieve Reporter Cells from −80° C. storage. Perform a rapid thaw of the frozen cells by transferring a 10 ml volume of 37° C. cell recovery medium into the tube of frozen cells. Recap the tube of Reporter Cells and immediately place it in a 37° C. water bath for 5-10 minutes. Retrieve the tube of Reporter Cell Suspension from the water bath. Sanitize the outside surface of the tube with a 70% alcohol swab, and then transfer it into the cell culture hood. Dispense 90 μl of cell suspension into each well of the 96-well Assay Plate. Transfer the plate into 37° C. incubator, allowing the cells adherent to the bottom of the well. Dilute compounds in Dilution Plate (DP), and administrate to cells at Assay Plate (AP). DMSO content of the samples was kept at 0.2%. Cells were incubated for additional 22 hours before luciferase activities were measured. Thirty minutes before intending to quantify FXR activity, remove Detection Substrate and Detection Buffer from the refrigerator and place them in a low-light area so that they may equilibrate to room temperature. Remove the plate's lid and discard all media contents by ejecting it into an appropriate waste container. Gently tap the inverted plate onto a clean absorbent paper towel to remove residual droplets. Cells will remain tightly adhered to well bottoms. Add 100 μl of luciferase detection reagent to each well of the assay plate. Allow the assay plate to rest at room temperature for at least 5 minutes following the addition of LDR. Set the instrument (Envision) to perform a single 5 second “plate shake” prior to reading the first assay well. Read time may be 0.5 second (500 mSec) per well.

human FXR (NR1H4), sequence (Q96RI1 whole entry, the tested form may be a part): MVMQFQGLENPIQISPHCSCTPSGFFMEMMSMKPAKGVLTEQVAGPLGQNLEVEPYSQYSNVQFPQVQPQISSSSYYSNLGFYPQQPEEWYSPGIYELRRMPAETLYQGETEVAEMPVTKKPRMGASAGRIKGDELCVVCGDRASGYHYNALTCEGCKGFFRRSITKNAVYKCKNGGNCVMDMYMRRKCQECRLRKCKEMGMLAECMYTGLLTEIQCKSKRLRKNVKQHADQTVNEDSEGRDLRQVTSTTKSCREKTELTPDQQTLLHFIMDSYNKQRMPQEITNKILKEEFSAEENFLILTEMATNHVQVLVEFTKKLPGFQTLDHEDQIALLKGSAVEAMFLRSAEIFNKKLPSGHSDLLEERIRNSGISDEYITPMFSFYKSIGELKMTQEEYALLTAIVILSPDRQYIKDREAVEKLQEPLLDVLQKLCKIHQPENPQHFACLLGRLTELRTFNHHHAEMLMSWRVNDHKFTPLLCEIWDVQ

SMILES	EC50	Emax
CC[C@H]1[C@@H](O)[C@@H]2[C@H](CC[C@]3(C)[C@@H]([C@H](C)COC(=O)NS(=O)(=O)c4ccc(-n5ccnc5)nc4)CC[C@@H]23)[C@@]2(C)CC[C@@H](O)C[C@@H]12 [Example 44-m]	< 100 nM	206%
CC[C@H]1[C@@H](O)[C@@H]2[C@H](CC[C@]3(C)[C@@H]([C@H](C)CCOC(=O)NS(=O)(=O)c4ccc5c(c4)CCC5)CC[C@@H]23)[C@@]2(C)CC[C@@H](O)C[C@@H]12 [Example 67]	< 100 nM	290%
CC[C@H]1[C@@H](O)[C@@H]2[C@H](CC[C@]3(C)[C@@H]([C@H](C)COC(=O)NS(=O)(=O)c4ccc(-n5cccn5)nc4)CC[C@@H]23)[C@@]2(C)CC[C@@H](O)C[C@@H]12 [Example 16]	< 100 nM	187%
CC[C@H]1[C@@H](O)[C@@H]2[C@H](CC[C@]3(C)[C@@H]([C@H](C)CCCOC(=O)NS(=O)(=O)N4CCCC4)CC[C@@H]23)[C@@]2(C)CC[C@@H](O)C[C@@H]12 [Example 119]	1000 to 10000 nM	370%
CCOC(=O)C1CCN(C(=O)OCC[C@@H](C)[C@H]2CC[C@H]3[C@@H]4[C@H](O)[C@H](CC)[C@@H]5C[C@H](O)CC[C@]5(C)[C@H]4CC[C@]23C)CC1 [Example 145]	1000 to 10000 nM	247%
CC[C@H]1[C@@H](O)[C@@H]2[C@H](CC[C@]3(C)[C@@H]([C@H](C)COC(=O)NS(=O)(=O)c4ccc(-c5ccc(F)cc5)cc4)CC[C@@H]23)[C@@]2(C)CC[C@@H](O)C[C@@H]12 [Example 28]	< 100 nM	194%
CC[C@H]1[C@@H](O)[C@@H]2[C@H](CC[C@]3(C)[C@@H]([C@H](C)COC(=O)NS(=O)(=O)c4cccc(OC(C)(C)C)c4)CC[C@@H]23)[C@@]2(C)CC[C@@H](O)C[C@@H]12 [Example 29]	100 to 1000 nM	186%
CC[C@H]1[C@@H](O)[C@@H]2[C@H](CC[C@]3(C)[C@@H]([C@H](C)CCCOC(=O)NCc4ccccc4)CC[C@@H]23)[C@@]2(C)CC[C@@H](O)C[C@@H]12 [Example 124]	100 to 1000 nM	225%
CC[C@H]1[C@@H](O)[C@@H]2[C@H](CC[C@]3(C)[C@@H]([C@H](C)CCOC(=O)NCCN4CCOCC4)CC[C@@H]23)[C@@]2(C)CC[C@@H](O)C[C@@H]12 [Example 151]	100 to 1000 nM	253%
CC[C@H]1[C@@H](O)[C@@H]2[C@H](CC[C@]3(C)[C@@H]([C@H](C)CCCOC(=O)N4CCC(N5CCCCC5)CC4)CC[C@@H]23)[C@@]2(C)CC[C@@H](O)C[C@@H]12 [Example 148]	1000 to 10000 nM	37%
CC[C@H]1[C@@H](O)[C@@H]2[C@H](CC[C@]3(C)[C@@H]([C@H](C)CCOC(=O)NS(=O)(=O)N(C)C)CC[C@@H]23)[C@@]2(C)CC[C@@H](O)C[C@@H]12 [Example 50]	< 100 nM	291%
CC[C@H]1[C@@H](O)[C@@H]2[C@H](CC[C@]3(C)[C@@H]([C@H](C)COC(=O)NS(=O)(=O)c4ccc(N5CCCCCC5)cc4)CC[C@@H]23)[C@@]2(C)CC[C@@H](O)C[C@@H]12 [Example 22]	< 100 nM	262%
CC[C@H]1[C@@H](O)[C@@H]2[C@H](CC[C@]3(C)[C@@H]([C@H](C)CCOC(=O)N4CC[C@@H](CO)C4)CC[C@@H]23)[C@@]2(C)CC[C@@H](O)C[C@@H]12 [Example 212]	< 100 nM	479%
CC[C@H]1[C@@H](O)[C@@H]2[C@H](CC[C@]3(C)[C@@H]([C@H](C)COC(=O)NS(=O)(=O)c4ccc(-n5ccnn5)cc4)CC[C@@H]23)[C@@]2(C)CC[C@@H](O)C[C@@H]12 [Example 44-g]	< 100 nM	209%
CC[C@H]1[C@@H](O)[C@@H]2[C@H](CC[C@]3(C)[C@@H]([C@H](C)CCOC(=O)N4CCCC4c4cccc(Cl)c4)CC[C@@H]23)[C@@]2(C)CC[C@@H](O)C[C@@H]12 (stereo partly shown) [Example 184]	1000 to 10000 nM	213%
CC[C@H]1[C@@H](O)[C@@H]2[C@H](CC[C@]3(C)[C@@H]([C@H](C)COC(=O)NS(=O)(=O)c4ccc(N5CCC5)cc4)CC[C@@H]23)[C@@]2(C)CC[C@@H](O)C[C@@H]12 [Example 17]	< 100 nM	211%
CC[C@H]1[C@@H](O)[C@@H]2[C@H](CC[C@]3(C)[C@@H]([C@H](C)CCOC(=O)NS(=O)(=O)c4ccc(OCC(F)(F)F)cc4)CC[C@@H]23)[C@@]2(C)CC[C@@H](O)C[C@@H]12 [Example 101]	100 to 1000 nM	289%
CC[C@H]1[C@@H](O)[C@@H]2[C@H](CC[C@]3(C)[C@@H]([C@H](C)CCCOC(=O)N(C)C)CC[C@@H]23)[C@@]2(C)CC[C@@H](O)C[C@@H]12 [Example 128]	1000 to 10000 nM	138%
CC[C@H]1[C@@H](O)[C@@H]2[C@H](CC[C@]3(C)[C@@H]([C@H](C)COC(=O)NS(=O)(=O)c4ccc(N5CCOCC5)nc4)CC[C@@H]23)[C@@]2(C)CC[C@@H](O)C[C@@H]12 [Example 15]	< 100 nM	197%
CC[C@H]1[C@@H](O)[C@@H]2[C@H](CC[C@]3(C)[C@@H]([C@H](C)COC(=O)NS(=O)(=O)N(C)C)CC[C@@H]23)[C@@]2(C)CC[C@@H](O)C[C@@H]12 [Example 7]	1000 to 10000 nM	168%
CC[C@H]1[C@@H](O)[C@@H]2[C@H](CC[C@]3(C)[C@@H]([C@H](C)CCOC(=O)NS(=O)(=O)c4nccs4)CC[C@@H]23)[C@@]2(C)CC[C@@H](O)C[C@@H]12 [Example 104-c]	1000 to 10000 nM	34%
CC[C@H]1[C@@H](O)[C@@H]2[C@H](CC[C@]3(C)[C@@H]([C@H](C)CCOC(=O)NS(=O)(=O)c4cccc5ccccc45)CC[C@@H]23)[C@@]2(C)CC[C@@H](O)C[C@@H]12 [Example 81]	< 100 nM	372%
CC[C@H]1[C@@H](O)[C@@H]2[C@H](CC[C@]3(C)[C@@H]([C@H](C)CCOC(=O)NS(=O)(=O)Cc4ccccc4)CC[C@@H]23)[C@@]2(C)CC[C@@H](O)C[C@@H]12 [Example 56]	< 100 nM	326%
CC[C@H]1[C@@H](O)[C@@H]2[C@H](CC[C@]3(C)[C@@H]([C@H](C)CCOC(=O)NS(=O)(=O)c4ccc(C(C)(C)C(=O)OC)cc4)CC[C@@H]23)[C@@]2(C)CC[C@@H](O)C[C@@H]12 [Example 55]	< 100 nM	258%
CC[C@H]1[C@@H](O)[C@@H]2[C@H](CC[C@]3(C)[C@@H]([C@H](C)COC(=O)NS(=O)(=O)c4ccc(-c5ncco5)nc4)CC[C@@H]23)[C@@]2(C)CC[C@@H](O)C[C@@H]12 [Example 44-o]	100 to 1000 nM	292%
CC[C@H]1[C@@H](O)[C@@H]2[C@H](CC[C@]3(C)[C@@H]([C@H](C)COC(=O)NS(=O)(=O)c4ccc(-c5ncccn5)cc4)CC[C@@H]23)[C@@]2(C)CC[C@@H](O)C[C@@H]12 [Example 36]	< 100 nM	205%

From US10457703B2, “Bile acid derivatives as FXR/TGR5 agonists and methods of use thereof” (ENANTA PHARMACEUTICALS, INC., priority 2015, dated 2019)
